Reference: patent US8754089B2, “Heterocyclic compounds and their uses” (Amgen Inc., priority 2009, dated 2014)

The molecules below were run against PI3Kδ (Homo sapiens (Human), UniProt O00329) (assay: PI3Kδ Alphascreen assay).
Assay type: biochemical
Description: Full length p110 subunits of PI3k α, β and δ, N-terminally labeled with polyHis tag, were coexpressed with p85 with Baculo virus expression vectors in sf9 insect cells. P110/p85 heterodimers were purified by sequential Ni-NTA, Q-HP, Superdex-100 chromatography. Purified α, β and δ isozymes were stored at −20° C. in 20 mM Tris, pH 8, 0.2M NaCl, 50% glycerol, 5 mM DTT, 2 mM Na cholate. […] The y isozyme was purified by sequential Ni-NTA, Superdex-200, Q-HP chromatography. The γ isozyme was stored frozen at −80° C. in NaH2PO4, pH 8, 0.2M NaCl, 1% ethylene glycol, 2 mM β-mercaptoethanol.
A PI3K Alphascreen® assay (PerkinElmer, Waltham, Mass.) was used to measure the activity of a panel of four phosphoinositide 3-kinases: PI3Kα, PI3Kβ, PI3Kγ, and PI3Kδ. Enzyme reaction buffer was prepared using sterile water (Baxter, Deerfield, Ill.) and 50 mM Tris HCl pH 7, 14 mM MgCl2, 2 mM sodium cholate, and 100 mM NaCl. 2 mM DTT was added fresh the day of the experiment. The Alphascreen buffer was made using sterile water and 10 mM Tris HCl pH 7.5, 150 mM NaCl, 0.10% Tween 20, and 30 mM EDTA. 1 mM DTT was added fresh the day of the experiment. Compound source plates used for this assay were 384-well Greiner clear polypropylene plates containing test compounds at 5 mM and diluted 1:2 over 22 concentrations. Columns 23 and 24 contained only DMSO as these wells comprised the positive and negative controls, respectively. Source plates were replicated by transferring 0.5 uL per well into 384-well Optiplates (PerkinElmer, Waltham, Mass.).
Each PI3K isoform was diluted in enzyme reaction buffer to 2× working stocks. […] PI(4,5)P2 (Echelon Biosciences, Salt Lake City, Utah) was diluted to 10 μM and ATP was diluted to 20 μM. This 2× stock was used in the assays for PI3Kα and PI3Kβ. For assay of PI3Kγ and PI3Kδ, PI(4,5)P2 was diluted to 10 μM and ATP was diluted to 8 μM to prepare a similar 2× working stock. Alphascreen reaction solutions were made using beads from the anti-GST Alphascreen kit (PerkinElmer, Waltham, Mass.). Two 4× working stocks of the Alphascreen reagents were made in Alphascreen reaction buffer. In one stock, biotinylated-IP4 (Echelon Biosciences, Salt Lake City, Utah) was diluted to 40 nM and streptavadin-donor beads were diluted to 80 μg/mL. In the second stock, PIP3-binding protein (Echelon Biosciences, Salt Lake City, Utah) was diluted to 40 nM and anti-GST-acceptor beads were diluted to 80 μg/mL.
10 μL/well of the appropriate substrate 2× stock (containing 20 μM ATP for the PI3Kα and β assays and containing 8 μM ATP for the PI3Kγ and δ assays) was then added to Columns 1-24 of all plates. Plates were then incubated at room temperature for 20 minutes. In the dark, 10 μL/well of the donor bead solution was added to columns 1-24 of the plates to quench the enzyme reaction. The plates were incubated at room temperature for 30 minutes. Still in the dark, 10 μL/well of the acceptor bead solution was added to columns 1-24 of the plates. The plates were then incubated in the dark for 1.5 hours. The plates were read on an Envision multimode Plate Reader (PerkinElmer, Waltham, Mass.) using a 680 nm excitation filter and a 520-620 nm emission filter.

PI3Kδ, sequence (O00329 whole entry): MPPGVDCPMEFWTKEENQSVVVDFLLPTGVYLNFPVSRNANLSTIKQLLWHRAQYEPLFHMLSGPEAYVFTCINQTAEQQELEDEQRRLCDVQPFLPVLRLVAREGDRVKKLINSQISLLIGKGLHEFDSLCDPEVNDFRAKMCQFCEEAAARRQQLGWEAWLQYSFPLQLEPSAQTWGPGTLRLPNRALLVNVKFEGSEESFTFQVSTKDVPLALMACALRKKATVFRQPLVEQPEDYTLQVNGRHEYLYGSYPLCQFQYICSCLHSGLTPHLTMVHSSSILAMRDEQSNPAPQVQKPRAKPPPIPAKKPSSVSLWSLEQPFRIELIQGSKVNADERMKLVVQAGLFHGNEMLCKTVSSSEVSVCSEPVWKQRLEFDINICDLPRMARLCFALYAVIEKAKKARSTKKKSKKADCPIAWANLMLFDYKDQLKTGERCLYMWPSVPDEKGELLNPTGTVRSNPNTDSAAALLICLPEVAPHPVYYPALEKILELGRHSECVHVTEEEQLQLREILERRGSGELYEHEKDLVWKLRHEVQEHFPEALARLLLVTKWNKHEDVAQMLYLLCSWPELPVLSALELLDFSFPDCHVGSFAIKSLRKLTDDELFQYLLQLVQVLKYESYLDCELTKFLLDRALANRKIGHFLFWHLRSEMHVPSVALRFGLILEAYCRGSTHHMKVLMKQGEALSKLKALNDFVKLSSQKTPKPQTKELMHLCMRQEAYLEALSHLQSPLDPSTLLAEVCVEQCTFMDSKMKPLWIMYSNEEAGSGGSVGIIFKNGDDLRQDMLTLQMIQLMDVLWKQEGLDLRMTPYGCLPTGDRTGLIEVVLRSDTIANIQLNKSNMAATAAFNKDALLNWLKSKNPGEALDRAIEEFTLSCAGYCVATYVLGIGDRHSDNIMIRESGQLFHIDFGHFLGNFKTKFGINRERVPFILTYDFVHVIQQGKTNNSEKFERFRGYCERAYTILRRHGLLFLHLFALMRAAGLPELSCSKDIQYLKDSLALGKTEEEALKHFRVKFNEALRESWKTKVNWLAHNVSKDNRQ
PI3Kδ, sequence (P27986 whole entry partner): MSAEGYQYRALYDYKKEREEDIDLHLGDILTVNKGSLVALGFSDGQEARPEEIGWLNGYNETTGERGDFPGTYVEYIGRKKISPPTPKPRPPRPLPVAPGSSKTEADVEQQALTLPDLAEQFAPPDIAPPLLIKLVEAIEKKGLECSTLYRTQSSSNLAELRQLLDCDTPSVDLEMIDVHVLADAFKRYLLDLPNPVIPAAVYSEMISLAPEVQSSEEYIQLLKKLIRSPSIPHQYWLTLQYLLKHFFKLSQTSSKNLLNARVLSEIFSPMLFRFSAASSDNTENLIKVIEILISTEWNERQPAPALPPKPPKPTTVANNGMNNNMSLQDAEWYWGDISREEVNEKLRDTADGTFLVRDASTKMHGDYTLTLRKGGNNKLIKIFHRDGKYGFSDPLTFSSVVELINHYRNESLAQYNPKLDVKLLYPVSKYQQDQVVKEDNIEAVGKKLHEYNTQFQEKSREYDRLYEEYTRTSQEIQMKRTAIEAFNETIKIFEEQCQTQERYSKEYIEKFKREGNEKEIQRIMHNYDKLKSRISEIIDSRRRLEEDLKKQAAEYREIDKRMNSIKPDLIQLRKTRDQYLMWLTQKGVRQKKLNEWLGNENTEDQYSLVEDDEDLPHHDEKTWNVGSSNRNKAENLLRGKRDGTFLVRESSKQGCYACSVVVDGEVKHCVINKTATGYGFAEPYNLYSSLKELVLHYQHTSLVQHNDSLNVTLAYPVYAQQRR

SMILES	Ki
C[C@@H](Nc1ncnc(N)c1C#N)c1nc2ccccn2c(=O)c1-c1cc(F)cc(F)c1 [4-amino-6-(((1R)-1-(3-(3,5-difluorophenyl)-4-oxo-4H-pyrido[1,2-a]pyrimidin-2-yl)ethyl)amino)-5-pyrimidinecarbonitrile]	320000 nM
CC(Nc1ncnc(N)c1C#N)c1nc2ccccn2c(=O)c1-c1ccccn1 (racemic) [4-amino-6-((1-(4-oxo-3-(2-pyridinyl)-4H-pyrido[1,2-a]pyrimidin-2-yl)ethyl)amino)-5-pyrimidinecarbonitrile]	104 nM
C[C@H](Nc1ncnc(N)c1C#N)c1nc2ccccn2c(=O)c1-c1ccccc1S(C)(=O)=O [4-amino-6-(((1S)-1-(3-(2-(methylsulfonyl)phenyl)-4-oxo-4H-pyrido[1,2-a]pyrimidin-2-yl)ethyl)amino)-5-pyrimidinecarbonitrile]	53.7 nM
Cc1ccnc(-c2c([C@H](C)Nc3ncnc(N)c3C#N)nc3ccccn3c2=O)c1 [4-amino-6-(((1S)-1-(3-(4-methyl-2-pyridinyl)-4-oxo-4H-pyrido[1,2-a]pyrimidin-2-yl)ethyl)amino)-5-pyrimidinecarbonitrile]	230 nM
Cc1cccc2nc(C(C)Nc3ncnc(N)c3C#N)c(-c3ccccc3)c(=O)n12 (single isomer, unassigned)	1180 nM
C[C@@H](Nc1ncnc(N)c1C#N)c1nc2ccccn2c(=O)c1-c1cccc(F)c1 [4-Amino-6-(((1R)-1-(3-(3-fluorophenyl)-4-oxo-4H-pyrido[1,2-a]pyrimidin-2-yl)ethyl)amino)-5-pyrimidinecarbonitrile]	1880 nM
Cc1ccnc(-c2c([C@@H](C)Nc3ncnc(N)c3C#N)nc3ccccn3c2=O)c1 [4-amino-6-(((1R)-1-(3-(4-methyl-2-pyridinyl)-4-oxo-4H-pyrido[1,2-a]pyrimidin-2-yl)ethyl)amino)-5-pyrimidinecarbonitrile]	9270 nM
C[C@@H](Nc1ncnc(N)c1C#N)c1nc2ccccn2c(=O)c1-c1ccccn1 [4-amino-6-(((1R)-1-(4-oxo-3-(2-pyridinyl)-4H-pyrido[1,2-a]pyrimidin-2-yl)ethyl)amino)-5-pyrimidinecarbonitrile]	585 nM
CC(Nc1ncnc(N)c1C#N)c1nc2ccccn2c(=O)c1-c1cc(F)cc(F)c1 (racemic) [4-Amino-6-((1-(3-(3,5-difluorophenyl)-4-oxo-4H-pyrido[1,2-a]pyrimidin-2-yl)ethyl)amino)-5-pyrimidinecarbonitrile]	89 nM
Cc1cccc2nc([C@@H](C)Nc3ncnc4[nH]cnc34)c(-c3cccc(F)c3)c(=O)n12 [3-(3-fluorophenyl)-6-methyl-2-((1R)-1-(9H-purin-6-ylamino)ethyl)-4H-pyrido[1,2-a]pyrimidin-4-one]	802 nM
Cc1ccnc(-c2c(C(C)Nc3ncnc(N)c3C#N)nc3ccccn3c2=O)c1 (racemic) [4-amino-6-((1-(3-(4-methyl-2-pyridinyl)-4-oxo-4H-pyrido[1,2-a]pyrimidin-2-yl)ethyl)amino)-5-pyrimidinecarbonitrile]	471 nM
Cc1ccccc1-c1c(CSc2ncnc3[nH]cnc23)nc2cccc(C)n2c1=O [6-methyl-3-(2-methylphenyl)-2-((9H-purin-6-yl-sulfanyl)methyl)-4H-pyrido[1,2-a]pyrimidin-4-one]	9710 nM
Cc1ccccc1-c1c(Cn2cnc3c(N)ncnc32)nc2cccc(C)n2c1=O [2-((6-amino-9H-purin-9-yl)methyl)-6-methyl-3-(2-methylphenyl)-4H-pyrido[1,2-a]pyrimidin-4-one]	6280 nM
Cc1cccc2nc(CNc3ncnc4[nH]cnc34)c(-c3cccc(F)c3)c(=O)n12 [3-(3-Fluorophenyl)-6-methyl-2-((9H-purin-6-ylamino)methyl)-4H-pyrido[1,2-a]pyrimidin-4-one]	711 nM
CC(Nc1ncnc(N)c1C#N)c1nc2ccccn2c(=O)c1-c1cccc(F)c1 (racemic) [4-amino-6-((1-(3-(3-fluorophenyl)-4-oxo-4H-pyrido[1,2-a]pyrimidin-2-yl)ethyl)amino)-5-pyrimidinecarbonitrile]	57.1 nM
Cc1cccc2nc(Cn3nc(I)c4c(N)ncnc43)c(-c3cccc(F)c3)c(=O)n12 [2-((4-amino-3-iodo-1H-pyrazolo[3,4-d]pyrimidin-1-yl)methyl)-3-(3-fluorophenyl)-6-methyl-4H-pyrido[1,2-a]pyrimidin-4-one]	84.9 nM
C[C@@H](Nc1ncnc(N)c1C#N)c1nc2ccccn2c(=O)c1-c1ccccc1S(C)(=O)=O [4-amino-6-(((1R)-1-(3-(2-(methylsulfonyl)phenyl)-4-oxo-4H-pyrido[1,2-a]pyrimidin-2-yl)ethyl)amino)-5-pyrimidinecarbonitrile]	24600 nM
Cc1cccc2nc([C@@H](C)Nc3ncnc(N)c3C#N)c(-c3ccccn3)c(=O)n12 [4-amino-6-(((1R)-1-(6-methyl-4-oxo-3-(2-pyridinyl)-4H-pyrido[1,2-a]pyrimidin-2-yl)ethyl)amino)-5-pyrimidine-carbonitrile]	10700 nM

Further molecules by falling Ki, results first:

Ki	SMILES
52.8 nM	CC(Nc1ncnc(N)c1C#N)c1nc2ccccn2c(=O)c1-c1ccccc1S(C)(=O)=O (racemic) [4-amino-6-((1-(3-(2-(methylsulfonyl)phenyl)-4-oxo-4H-pyrido[1,2-a]pyrimidin-2-yl)ethyl)amino)-5-pyrimidinecarbonitrile]
42.4 nM	C[C@H](Nc1ncnc(N)c1C#N)c1nc2ccccn2c(=O)c1-c1ccccn1 [4-amino-6-(((1S)-1-(4-oxo-3-(2-pyridinyl)-4H-pyrido[1,2-a]pyrimidin-2-yl)ethyl)amino)-5-pyrimidinecarbonitrile]
33 nM	CC(Nc1ncnc(N)c1C#N)c1c(-c2cc(F)cc(F)c2)c(=O)c2cc(F)ccc2n1C (centres unmarked) [4-amino-6-((1-(3-(3,5-difluorophenyl)-6-fluoro-1-methyl-4-oxo-1,4-dihydro-2-quinolinyl)ethyl)amino)-5-pyrimidinecarbonitrile]
27.7 nM	Cc1cccc2nc(C(C)Nc3ncnc4[nH]cnc34)c(-c3cccc(F)c3)c(=O)n12 (racemic) [3-(3-fluorophenyl)-6-methyl-2-(1-(9H-purin-6-ylamino)ethyl)-4H-pyrido[1,2-a]pyrimidin-4-one]
23.1 nM	Cc1cccc2nc([C@H](C)Nc3ncnc4[nH]cnc34)c(-c3cccc(F)c3)c(=O)n12 [3-(3-fluorophenyl)-6-methyl-2-((1S)-1-(9H-purin-6-ylamino)ethyl)-4H-pyrido[1,2-a]pyrimidin-4-one]
21.6 nM	C[C@H](Nc1ncnc(N)c1C#N)c1nc2ccccn2c(=O)c1-c1cc(F)cc(F)c1 [4-amino-6-(((1S)-1-(3-(3,5-difluorophenyl)-4-oxo-4H-pyrido[1,2-a]pyrimidin-2-yl)ethyl)amino)-5-pyrimidinecarbonitrile]
21.4 nM	Cc1cccc2nc([C@H](C)Nc3ncnc(N)c3C#N)c(-c3ccccn3)c(=O)n12 [4-amino-6-(((1S)-1-(6-methyl-4-oxo-3-(2-pyridinyl)-4H-pyrido[1,2-a]pyrimidin-2-yl)ethyl)amino)-5-pyrimidinecarbonitrile]
15.7 nM	C[C@H](Nc1ncnc(N)c1C#N)c1nc2ccccn2c(=O)c1-c1cccc(F)c1 [4-amino-6-(((1S)-1-(3-(3-fluorophenyl)-4-oxo-4H-pyrido[1,2-a]pyrimidin-2-yl)ethyl)amino)-5-pyrimidinecarbonitrile]
12.6 nM	Cc1cccc2nc(C(C)Nc3ncnc(N)c3C#N)c(-c3ccccc3)c(=O)n12 (racemic) [4-amino-6-((1-(6-methyl-4-oxo-3-phenyl-4H-pyrido[1,2-a]pyrimidin-2-yl)ethyl)amino)-5-pyrimidinecarbonitrile]
10.8 nM	Cc1cccc2nc(C(C)Nc3ncnc(N)c3C#N)c(-c3ccccn3)c(=O)n12 (racemic) [4-amino-6-((1-(6-methyl-4-oxo-3-(2-pyridinyl)-4H-pyrido-[1,2-a]pyrimidin-2-yl)ethyl)amino)-5-pyrimidinecarbonitrile]
5 nM	Cc1cccc2nc([C@H](C)Nc3ncnc(N)c3C#N)c(-c3ccccc3)c(=O)n12 [4-amino-6-(((1S)-1-(6-methyl-4-oxo-3-phenyl-4H-pyrido[1,2-a]pyrimidin-2-yl)ethyl)amino)-5-pyrimidinecarbonitrile]
